Test results published in PubChem BioAssay AID1626 (SRMLSC, 2009).

System: M. tuberculosis H37Rv growth inhibition
Assay: M. tuberculosis H37Rv growth inhibitors, H37Rv strain (AID 1626)
Details: for IC90: measured here: IC90 against H37Rv; for CC50: measured here: Vero cell cytotoxicity

Compound	IC50 [µM]	IC90 [µM]	CC50 [µM]
O=C(Nc1nnc(-c2cccnc2)o1)c1cccc(Cl)c1	3.27	> 100	33.7
COC(=O)c1nc(-c2ccc3c(n2)C(=O)C(N)=C(OC)C3=O)c(N)c(-c2ccc(OC)c(OC)c2O)c1C	–	> 100	1.35
CC(C)c1ccc(-n2cccc2/C=C2/C(=N)N3C=CSC3=NC2=O)cc1	11.9	> 100	> 40
N#Cc1c(N2CCN(C(=O)c3ccco3)CC2)nc(-c2ccccc2)c2c1CCCC2	9.52	12.2	24.1
COc1ccc(-c2noc(CCC(=O)Nc3ccc4c(c3)OCCO4)n2)cc1	30.7	> 100	–
Cc1cc(NC(=O)CSc2nnc(-c3ccc4c(c3)OCCO4)o2)no1	1.49	2.53	> 40
Cc1ccc(-c2csc(NC(=O)C[n+]3cc(-c4ccc(C)cc4)n4c3CCC4)n2)cc1	11.3	12.6	–
Cc1ccc(Cc2cnc(N3C(=N)SC(C)C3=O)s2)cc1 (stereo not drawn)	3.58	18.1	> 40
CCOC(=O)COc1ccc2c(C#N)c3ccccn3c2c1	1.67	8.66	–
COC(=O)COc1ccc(-c2ccc(F)cc2)cc1C=O	5.69	9.92	–
CCOc1ccc2nc(NC(=O)c3ccccn3)sc2c1	1.36	3.07	15.1
COc1ccc(NC(=O)CSC2=NCCN2)cc1	–	> 100	–
Cc1nc(-c2ccccn2)nc(SCC(=O)c2ccccc2)c1Cl	3.68	6.49	> 40
Cc1ccc(-c2ccc(C3C(C#N)=C(N)Oc4n[nH]c(C)c43)o2)cc1 (stereo not drawn)	2.37	> 100	> 40
CC1(C)CC(=O)C2=C(C1)OC(N)=C([N+](=O)[O-])C2c1ccc(C#N)s1 (stereo not drawn)	10.9	15.2	–
O=C(Nc1nnc(-c2ccc(F)cc2)o1)c1cc(Cl)sc1Cl	< 0.195	2.86	18.2
CCCN(CCC)CC(O)Cn1cc(/C=C/C(=O)c2ccccc2)c2ccccc21 (stereo not drawn)	1.5	1.66	20.3
Cc1ccc(CN=c2c([N+](=O)[O-])nn(-c3cccc(Cl)c3)n2O)cc1	2.8	2.94	–
COc1ccc(C[C@H]2CN3C(=NC[C@@H]3Cc3ccc(O)cc3)N2C[C@H](C)NC(=O)c2ccc(C)c(Br)c2)cc1	6.33	9.21	–

Compound	IC50 [µM]	IC90 [µM]	CC50 [µM]
O=C(Nc1ncc(Cc2ccccc2Cl)s1)C1=NCCN1	3.75	10.3	> 40
CCOc1ccc(NC(=O)CSc2ccccc2N)cc1	–	> 100	–
COc1cc(CNC23CC4CC(CC(C4)C2)C3)ccc1OCc1ccccc1	2.94	3.35	> 40
O=c1[nH]c(=O)n(Cc2ccccc2Cl)c(O)c1/C=C1/C=CC=N1	< 0.391	3.23	27.2
CC(C)c1cc(NC(=O)CCl)on1	13.7	32.6	16.7
O=C(Nc1ccc(N2CCN(C(=O)c3ccc(Cl)cc3)CC2)cc1)c1ccc([N+](=O)[O-])o1	< 0.195	< 0.195	0.417
O=[N+]([O-])c1cc(Cl)c(O)c2ncccc12	16.3	24.7	21.7
COC(=O)COc1ccc2c(=O)c(Oc3ccccc3)c(C)oc2c1	2.13	10	–
CCCCCC(=O)c1ccc(O)cc1O	63.3	> 100	–
Cc1ccc(NC(=O)COC(=O)C2=COCCO2)c([N+](=O)[O-])c1	6.3	> 100	–
O=C(NC1CCCCCCC1)c1ccccc1-c1ccccc1	57.1	> 100	–
N=C1S/C(=C\c2ccco2)C(=O)N1c1nccs1	< 0.195	< 0.195	22.5
N#CC(C(=O)C12CC3CC(CC(C3)C1)C2)c1nc2ccccc2[nH]1 (stereo not drawn)	9.8	> 100	> 40
Cc1cnc(NC(=O)c2cc3c(C)nn(-c4ccccc4)c3s2)s1	61	> 100	> 40
COC(=O)C(C)Oc1ccc(-c2nccc(-c3cccs3)n2)cc1 (stereo not drawn)	0.829	2.74	–
Cc1cc(C)nc(-n2nc(C)cc2Nc2ccccc2)n1	3.27	13.6	> 40
CCCC(=O)Nc1cccc(-c2nc3ccccc3c(=O)o2)c1	5.72	12.1	–
c1csc(Cc2nn3c(-c4n[nH]c5c4CCC5)nnc3s2)c1	0.412	11	> 40
Cc1cc(N2CCCCC2)nc2ccc(NC(=O)c3ccc(Br)o3)cc12	1.69	3.38	> 40

Compound	IC50 [µM]	IC90 [µM]	CC50 [µM]
CCOC(=O)Cn1c2c(c(-c3ccccc3OC)cc1=O)CCCC2	21.1	> 100	–
CCOc1ccc(NC(=O)CCN2CCN(c3ccccc3F)CC2)cc1	36.3	> 100	–
O=C(C[n+]1cc(-c2ccc(Cl)c(Cl)c2)n2c1CCC2)N1c2ccccc2Sc2ccccc21	12.2	13.9	–
CCOC(=O)COc1ccc2c(=O)c(-c3ccc(OC)c(OC)c3)c(C(=O)OCC)oc2c1	2.51	5.68	–
Cc1ccc(NC(=O)COC(=O)CC2CCCC2)cc1Cl	–	> 100	–
Cc1ccc(NC(=O)c2sc3nc(C)nc(N4CCN(c5ccccn5)CC4)c3c2C)c(C)c1	10.7	> 100	–
COC(=O)c1ccc(Cn2cc(C(F)(F)F)cc([N+](=O)[O-])c2=O)cc1	29.9	> 100	–
Cc1ccc(NC2=C/C(=N\S(=O)(=O)c3cccs3)c3ccccc3C2=O)c(C)c1	3.89	5.64	3.74
O=[N+]([O-])c1ccc(N=Nc2c(Cl)cc(O)cc2Cl)cc1	1.64	2.41	5.17
CC(C)[C@H](NC(=O)c1ccccc1Cl)C(=O)Nc1nc(-c2ccccn2)cs1	7.72	> 100	9.39
COc1ccc(OCC(O)Cn2c(=N)n(CCN3CCCCC3)c3ccccc32)cc1 (stereo not drawn)	6.22	6.86	> 40
c1ccc(-c2nc(NCc3ccco3)c3ccccc3n2)nc1	1.92	3	9.33
CCOC(=O)CSc1nc(-c2ccccc2)ns1	5.59	8.55	–
N#C/C(=C(/O)CSc1nnc(Cc2cccs2)n1C1CCCCC1)c1nc2ccccc2[nH]1	–	> 100	–
CN1CCN(C2=Cc3ccc(Cl)cc3Sc3ccc(F)cc32)CC1	10.9	12.3	33.9
CCCCCCn1c(=O)c(C(=O)Nc2nnc(C)s2)c(O)c2ccccc21	4.65	6	> 40
Cc1nn(-c2ccccc2)c2c1C(c1ccc(O)c(O)c1)N1C(=N2)C(Nc2ccccc2)=Nc2ccccc21 (stereo not drawn)	1.5	2.11	8.02
C#CCOCCOCCOCCNc1nc(N2CCN(C(=O)[C@H](Cc3cc4ccccc4[nH]3)n3cc([C@@H](N)CC(C)C)nn3)CC2)nc(N2CCN(C(=O)[C@H](Cc3cc4ccccc4[nH]3)n3cc([C@@H](N)CC(C)C)nn3)CC2)n1	4.23	7.58	–
